# Read-outs that look alike come from different tables or passages of the source.
# What was measured:
# Erysiphe graminis = assay: Action against Erysiphe graminis on barley
# Method: A1: Action gainst Erysiphe graminis on Barley
# a) Residual-protective Action Barley plants about 8 cm in height are sprayed to drip point with an aqueous spray mixture (max. 0.02% active ingredient) and are dusted 3 to 4 days later with conidia of the fungus. The infected plants are stood in a greenhouse at 22°. Fungus infestation is generally evaluated 10 days after infection.
# b) Systemic Action Barley plants about 8 cm in height are watered with an aqueous spray mixture (max. 0.002% active ingredient, based on the volume of the soil). […] The plants are dusted with conidia of the fungus 3 to 4 days later. The infected plants are stood in a greenhouse at 22°. Fungus infestation is generally evaluated 10 days after infection.
# [1] = tested on: Cercospora sp. (leaf spot); assay: Field test on chilli: action against Cercospora sp. (leaf spot)
# From the text: In a plot of land about 10 m^2 (test location: Cikampek, Java, Indonesia), chilli plants are sprayed a total of 7 times at intervals of about 7 days with 500-700 litres of spray mixture per hectare. Three days after the first spraying, the plants are infected artificially with the fungus.
# Evaluation is made by assessing infestation on the leaves after the sixth spraying.
# [2] = Field test on chilli: action on crop yield; assay type: in vivo; conditions: Example B10, chillis harvested after the sixth spraying
# Cercospora nicotianae = assay: Action against Cercospora nicotianae on tobacco plants; assay type: in vivo
# Pyricularia oryzae = assay type: in vivo; conditions: Example B11
# [3] = tested on: Colletotrichum lagenarium; assay: Action against Colletotrichum lagenarium on Cucumis sativus L./foliar application; assay type: in vivo
# [4] = tested on: Colletotrichum lagenarium; assay: Action against Colletotrichum lagenarium on Cucumis sativus L./soil application; assay type: in vivo
# [5] = Example B1, 0.6 mg a.i. per liter (ppm)
# [6] = Example B1, 2 mg a.i. per liter (ppm)
# [7] = Example B1, 6 mg a.i. per liter (ppm)
# [8] = Example B7, 2 mg a.i. per liter (ppm)
# [9] = Example B7, 6 mg a.i. per liter (ppm)
# [10] = Example B5, 2 mg a.i. per liter (ppm)
# [11] = Example B5, 6 mg a.i. per liter (ppm)
# [12] = Example B9(a), 6 mg a.i. per liter (ppm)
# [13] = Example B9(b), 0.02 mg a.i. per liter (ppm)
# [14] = Example B9(b), 0.06 mg a.i. per liter (ppm)
# [15] = Example B3(a), 0.06 mg a.i. per liter (ppm)
# [16] = Example B3(a), 0.2 mg a.i. per liter (ppm)
# [17] = Example B3(b), 0.2 mg a.i. per liter (ppm)
compound,measurement,setting,value
"CC1(C)CCC(Cc2ccc(Cl)cc2)C1(O)Cn1cncn1 (stereo not shown) [compound IID, 5-(4-chlorobenzyl)-2,2-dimethyl-1-(1H-1,2,4-triazol-1-ylmethyl)-cyclopentanol]",% action O (found),Erysiphe graminis; [5],10%
same,% action O (found),Erysiphe graminis; [6],40%
same,% action O (found),Erysiphe graminis; [7],51%
same,% action O (found),"Erysiphe graminis; Example B1, 20 mg a.i. per liter (ppm)",65%
manganese ethylenebis (dithiocarbamate) polymer-zinc complex [compound IIL],% action O (found),"[1]; Example B10, 100 mg a.i. per liter (ppm)",8%
same,"Action on crop yield, % action O (found)",[2]; 100 mg a.i. per liter (ppm),8%
"CC(C1CC1)C(O)(Cn1cncn1)c1ccc(Cl)cc1 (stereo not drawn) [compound IIC, α-(4-chlorophenyl)-α-(1-cyclopropylethyl)-1H-1,2,4-triazole-1-ethanol]",% action O (found),"Erysiphe graminis; Example B8, 6 mg a.i. per liter (ppm)",17%
same,% action O (found),"Erysiphe graminis; Example B8, 20 mg a.i. per liter (ppm)",33%
same,% action O (found),"Erysiphe graminis; Example B8, 60 mg a.i. per liter (ppm)",50%
same,% action O (found),Cercospora nicotianae; [8],0%
same,% action O (found),Cercospora nicotianae; [9],0%
"CCC1(C(=O)NC(C)c2ccc(Cl)cc2)C(C)C1(Cl)Cl [compound IIK, (1R,3S/1S,3R)-2,2-dichloro-N-[(R)-1-(4-chlorophenyl)ethyl]-1-ethyl-3-methylcyclo-propanecarboxamide]",% action O (found),Pyricularia oryzae; 0.02 mg a.i. per liter (ppm),0%
same,% action O (found),Pyricularia oryzae; 0.06 mg a.i. per liter (ppm),28%
same,% action O (found),Pyricularia oryzae; 0.2 mg a.i. per liter (ppm),47%
same,% action O (found),Pyricularia oryzae; 0.6 mg a.i. per liter (ppm),79%
same,% action O (found),Pyricularia oryzae; 2 mg a.i. per liter (ppm),83%
same,% action O (found),Pyricularia oryzae; 6 mg a.i. per liter (ppm),91%
"CO/N=C(/C(=O)OC)c1ccccc1COc1ccccc1C [compound IIG, methyl-(E)-2-methoximino-2-[α-(o-tolyloxy)-o-tolyl]acetate]",% action O (found),"[3]; Example B4, 2 mg a.i. per liter (ppm)",0%
same,% action O (found),"[3]; Example B4, 20 mg a.i. per liter (ppm)",41%
"CC(C)(C)C(O)(CCc1ccc(Cl)cc1)Cn1cncn1 (stereo not drawn) [compound IIA, α-[2-(4-chlorophenyl)ethyl]-α-(1,1-dimethylethyl)-1H-1,2,4-trazole-1-ethanol]",% action O (found),Cercospora nicotianae; [10],0%
same,% action O (found),Cercospora nicotianae; [11],0%
"CSC(=O)c1cccc2nnsc12 [compound ID, benzothiadiazole-7-carboxylic acid thiomethyl ester]",% action O (found),"Erysiphe graminis; Example B8, 0.6 mg a.i. per liter (ppm)",0%
same,% action O (found),"Erysiphe graminis; Example B8, 2 mg a.i. per liter (ppm)",33%
same,% action O (found),"[1]; Example B10, 5 mg a.i. per liter (ppm)",76%
same,"Action on crop yield, % action O (found)",[2]; 5 mg a.i. per liter (ppm),459%
same,% action O (found),"[3]; Example B9(a), 0.06 mg a.i. per liter (ppm)",16%
same,% action O (found),"[3]; Example B9(a), 0.2 mg a.i. per liter (ppm)",22%
same,% action O (found),[3]; [12],60%
same,% action O (found),"Cercospora nicotianae; Example B5, 0.2 mg a.i. per liter (ppm)",0%
same,% action O (found),Cercospora nicotianae; [10],17%
same,% action O (found),Cercospora nicotianae; [11],55%
same,% action O (found),"Cercospora nicotianae; Example B5, 20 mg a.i. per liter (ppm)",78%
same,% action O (found),"Cercospora nicotianae; Example B7, 0.2 mg a.i. per liter (ppm)",0%
same,% action O (found),Cercospora nicotianae; [8],17%
same,% action O (found),Cercospora nicotianae; [9],55%
same,% action O (found),"Cercospora nicotianae; Example B7, 20 mg a.i. per liter (ppm)",78%
same,% action O (found),Pyricularia oryzae; 6 mg a.i. per liter (ppm),15%
same,% action O (found),"[4]; Example B9(b), 0.006 mg a.i. per liter (ppm)",0%
same,% action O (found),[4]; [13],6%
same,% action O (found),[4]; [14],23%
same,% action O (found),"[4]; Example B9(b), 0.2 mg a.i. per liter (ppm)",36%
"CO/C=C(/C(=O)OC)c1ccccc1Oc1cc(Oc2ccccc2C#N)ncn1 [compound IIF, methyl-(E)-2-{2-[6-(2-cyanophenoxy)pyrimidin4-yloxy]phenyl}-3-methoxyacrylate]",% action O (found),[3]; [15],5%
same,% action O (found),[3]; [16],9%
same,% action O (found),"[3]; Example B3(a), 0.6 mg a.i. per liter (ppm)",12%
same,% action O (found),"[3]; Example B3(a), 6 mg a.i. per liter (ppm)",17%
same,% action O (found),"[3]; Example B9(a), 2 mg a.i. per liter (ppm)",18%
same,% action O (found),[3]; [12],75%
same,% action O (found),[4]; [17],0%
same,% action O (found),"[4]; Example B3(b), 0.6 mg a.i. per liter (ppm)",9%
same,% action O (found),"[4]; Example B3(b), 2 mg a.i. per liter (ppm)",28%
same,% action O (found),"[4]; Example B3(b), 6 mg a.i. per liter (ppm)",66%
same,% action O (found),[4]; [13],1%
same,% action O (found),[4]; [14],5%
same,% action O (found),"[4]; Example B9(b), 0.6 mg a.i. per liter (ppm)",27%
same,% action O (found),"[4]; Example B9(b), 2 mg a.i. per liter (ppm)",61%
same,% action O (found),"[4]; Example B9(b), 6 mg a.i. per liter (ppm)",93%
"O=C(O)c1cccc2nnsc12 [compound IA, benzothiadiazole-7-carboxylic acid]",% action O (found),Erysiphe graminis; [5],0%
same,% action O (found),Erysiphe graminis; [6],40%
same,% action O (found),Erysiphe graminis; [7],89%
same,% action O (found),"Erysiphe graminis; Example B2, 0.6 mg a.i. per liter (ppm)",14%
same,% action O (found),"Erysiphe graminis; Example B2, 2 mg a.i. per liter (ppm)",27%
same,% action O (found),[3]; [15],0%
same,% action O (found),[3]; [16],5%
same,% action O (found),"[3]; Example B3(a), 2 mg a.i. per liter (ppm)",22%
same,% action O (found),"[3]; Example B4, 0.2 mg a.i. per liter (ppm)",3%
same,% action O (found),"[3]; Example B4, 0.6 mg a.i. per liter (ppm)",51%
same,% action O (found),"[4]; Example B3(b), 0.006 mg a.i. per liter (ppm)",0%
same,% action O (found),"[4]; Example B3(b), 0.02 mg a.i. per liter (ppm)",40%
same,% action O (found),"[4]; Example B3(b), 0.06 mg a.i. per liter (ppm)",49%
same,% action O (found),[4]; [17],91%

# — patent US6335355B1, “Crop protection products” (Syngenta Investment Corporation, priority 1995, dated 2002)
